The conditions of assay [1]: associated disease models; cited from earlier work.
The conditions of assay [2]: animal cancer models; cited from earlier work.
Another assay concerns the target hPAOX (Homo sapiens (Human), UniProt Q6QHF9). Put plainly: Human PAOX assay (HyPerBlu chemiluminescent detection of hydrogen peroxide). Format: biochemical. The settings on record: 60 pM recombinant PAOX, 20 μM N-acetylspermine substrate. In outline:
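His-tagged recombinant PAOX expressed in sf9 insect cells was used at 60 pM, with 20 μM N-acetylspermine as substrate. Hydrogen peroxide formed by the reaction was detected by chemiluminescence from a boronate probe (HyPerBlu). Inhibition appears as lower luminescence.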

In assay [3] the target is T1, SMOX (Homo sapiens (Human), UniProt Q9NWM0). Put plainly: Cellular Thermal Shift Assay (CETSA) with alphaLISA detection of intact SMOX in A549 cells. Format: cell-based. The conditions noted are these: 1 hour compound incubation at 37° C., heated to 55° C. for 5 minutes. From the text:
The Cellular Thermal Shift Assay (CETSA) is a biophysical assay based on the principle of ligand-induced thermal stabilization of target proteins, meaning that a protein denaturing temperature will change upon ligand interaction. Thus, by heating samples (i.e. cells, ex vivo samples) to different temperatures, and quantifying conformationally intact proteins we can detect compound-protein interactions after compound treatment. CETSA allows direct monitoring of ligand binding to a specific target (target engagement). In our study, we have developed a suitable detection system that will detect intact SMOX using the alphaLISA. […] The detection of compound -SMOX ligand binding is performed using A549 cells. This adenocarcinoma human alveolar basal epithelial cell line expresses high levels of SMOX. Their use has been widely reported in the literature with respect to the investigation of the SMOX pathway. Using SMOX high-expressing cells with CETSA and alphaLISA systems provides the optimal platform for screening small molecules for SMOX inhibition.
A549 cells were seeded at a density of 0.05-0.1×10^6 cells/mL in T175 flasks and cultured in 25 mL of culture medium consisting in RPMI 1640 medium (Gibco) supplemented with 10% fetal bovine serum (Gibco). Cells were passaged twice per week and used for CETSA assays before reaching confluency. One day prior to the CETSA cells were seeded in 384-well white assay plates (Corning) at 15000 cells per well. Briefly, cells were washed with PBS (Life Technologies Europe BV) and dissociated by adding 2 mL TrypLE™ Select (Life Technologies Europe BV). After 5 min at 37° C., cells were resuspended in culture medium, counted using a ViCell XR cell counter (ViCell) and seeded in the 384-well plates.
Compounds were pre-diluted in PBS to a final concentration of […] and 1% DMSO and serially diluted in PBS 1% DMSO. For compound-cell incubation, medium in the 384 well plates was replaced with 30 μL of serially diluted compounds. After incubation at 37° C. for 1 hour the liquid was removed and plates were heated to 55° C. for 5 minutes and then transferred to ice for 5 minutes. After the cooling step, cells were lysed by adding 15 μL 1× alphaLISA-buffer (Perkin Elmer) containing anti-SMOX monoclonal antibody #2 and anti-SMOX Fab-fragment #33 mixture at a concentration of 5 and 0.5 nM respectively. After one hour at RT, 5 μL anti-6×His alphaLISA acceptor beads (50 mg/L, AL128C, Perkin Elmer) were added to the wells followed by an additional incubation of one hour at RT. Then 5 μL anti-rabbit IgG alpha donor beads (200 mg/L was added to the wells. After one hour incubation at RT the alpha signal was read using an alpha compatible reader. MDL75257 (M2949, Sigma) was used as positive control for compound-SMOX interaction. Compound-SMOX interaction is detected through the comparison of the high alpha signal of the negative control with the much lower signal of the wells that contain SMOX binding compounds.
On the technique in general: Alpha assays give light when donor and acceptor beads are brought close together.

Assay [4] deals with T1, SMOX. Put plainly: Human SMOX assay (HyPerBlu chemiluminescent detection of hydrogen peroxide). It counts as biochemical. The conditions noted are these: 2.5 nM full length hSMOX, spermine substrate, 1 h at room temperature, luminescence read; read-out: SMOx_IC50. The method in brief:
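Full-length N-His human SMOX (2.5 nM, E. coli-expressed) was incubated 1 h at room temperature with 30 µM spermine, 11-point compound dilutions and 1.25% DMSO in pH 7.4 HEPES/NaCl/EGTA buffer. H2O2 was detected by HyPerBlu chemiluminescence after 30 min, and IC50 came from dose–response fits.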

pIC50: −log10 of the molar value. Counter-ions that a name gives are not always drawn.

T1 sequence (Q9NWM0 whole entry): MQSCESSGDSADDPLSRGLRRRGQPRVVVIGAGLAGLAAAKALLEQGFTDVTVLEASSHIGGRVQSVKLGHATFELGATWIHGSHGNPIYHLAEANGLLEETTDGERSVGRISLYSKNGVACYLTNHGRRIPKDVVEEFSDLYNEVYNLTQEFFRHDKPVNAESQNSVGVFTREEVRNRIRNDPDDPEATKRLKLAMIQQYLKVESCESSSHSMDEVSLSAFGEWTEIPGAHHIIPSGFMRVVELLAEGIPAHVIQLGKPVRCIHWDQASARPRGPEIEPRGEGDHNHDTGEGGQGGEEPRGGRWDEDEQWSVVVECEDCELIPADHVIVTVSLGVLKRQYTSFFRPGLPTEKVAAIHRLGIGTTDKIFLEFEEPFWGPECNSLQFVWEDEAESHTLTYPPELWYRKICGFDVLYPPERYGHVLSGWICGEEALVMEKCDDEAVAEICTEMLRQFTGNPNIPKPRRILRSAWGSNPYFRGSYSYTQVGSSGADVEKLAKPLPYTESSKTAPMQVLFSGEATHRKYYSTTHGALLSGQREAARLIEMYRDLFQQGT
Sequence of hPAOX (Q6QHF9 whole entry): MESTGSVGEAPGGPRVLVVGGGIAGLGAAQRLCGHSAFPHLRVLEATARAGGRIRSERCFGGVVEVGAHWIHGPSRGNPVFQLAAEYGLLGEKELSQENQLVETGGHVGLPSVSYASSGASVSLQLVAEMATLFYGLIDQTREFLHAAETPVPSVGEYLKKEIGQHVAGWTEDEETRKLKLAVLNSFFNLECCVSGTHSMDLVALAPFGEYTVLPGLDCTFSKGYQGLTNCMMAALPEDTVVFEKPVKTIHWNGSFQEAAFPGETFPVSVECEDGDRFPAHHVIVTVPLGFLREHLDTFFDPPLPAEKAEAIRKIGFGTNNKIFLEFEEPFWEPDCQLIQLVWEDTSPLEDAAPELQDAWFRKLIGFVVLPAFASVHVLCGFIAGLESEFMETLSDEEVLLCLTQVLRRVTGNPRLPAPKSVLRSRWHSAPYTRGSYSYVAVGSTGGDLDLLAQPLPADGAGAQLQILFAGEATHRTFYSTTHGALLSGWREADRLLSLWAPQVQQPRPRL

In the case of `C=C=CCNCCCCNCC=C=C.Cl.Cl` [MDL 72527, N^1,N^4-di-2,3-butadienyl-1,4-butanediamine dihydrochloride], in assay [1], the “neuronal death and retinal degeneration” value was “reduced neuronal death and retinal degeneration”. For the same molecule, the cancer incidence entry in assay [2] is on record as “significantly reduced cancer incidence”.

As to `O=C(NCCCn1ccnc1)c1cc2nc(-c3ccccc3)cc(C3CCCCO3)n2n1` (centres unmarked) [Example 111, N-(3-(1H-imidazol-1-yl)propyl)-5-phenyl-7-(tetrahydro-2H-pyran-2-yl)pyrazolo[1,5-a]pyrimidine-2-carboxamide], the pIC50 was 5.53 on hPAOX and 7.24 on SMOX [4]. Moreover, the “SMOx % recovery CETSA” value at SMOX [3] is 52%.

As for `O=C(NCCCn1ccnc1)c1cc2nc(-c3ccccc3)cc(-c3ccc(F)cc3)n2n1` [Example 86, N-(3-(1H-imidazol-1-yl)propyl)-7-(4-fluorophenyl)-5-phenylpyrazolo[1,5-a]pyrimidine-2-carboxamide], the pIC50 was 5.66 at hPAOX and 7.62 at SMOX [4]. Further, the “SMOx % recovery CETSA” value on SMOX [3] stood at 40%.

`Cc1cccc(-c2cc(-c3ccccc3)nc3cc(C(=O)NCCCn4ccnc4)nn23)c1` [Example 81, N-(3-(1H-imidazol-1-yl)propyl)-5-phenyl-7-(m-tolyl)pyrazolo[1,5-a]pyrimidine-2-carboxamide]: the pIC50 on hPAOX and on SMOX [4] was 6.91 each time. Further, at SMOX [3], the “SMOx % recovery CETSA” value is given as 0%.

On to `O=C(NCCCn1ccnc1)c1cc2nc(-c3ccccc3)cc(-c3ccccc3)n2n1` [Example 43, N-(3-(1H-Imidazol-1-yl)propyl)-5,7-diphenylpyrazolo[1,5-a]pyrimidine-2-carboxamide], for which the pIC50 on hPAOX was 6.13; on SMOX [4] it was 8.00. For the same molecule, the “SMOx % recovery CETSA” value on SMOX [3] was 74%.

For the molecule `CN1CCC(C)(CNC(=O)c2cc3nc(-c4ccccc4)cc(-c4ccccc4)n3n2)C1` (centres unmarked) [Example 21, N-((1,3-Dimethylpyrrolidin-3-yl)methyl)-5,7-diphenylpyrazolo[1,5-a]pyrimidine-2-carboxamide], the values for the pIC50 on hPAOX and at SMOX [4] were 5.07 and 6.93, respectively. The “SMOx % recovery CETSA” value at SMOX [3] turned out to be 2%.

With `O=C(NCCn1ccnc1)c1cc2nc(-c3ccccc3)cc(-c3ccccc3)n2n1` [Example 12, N-(2-(1H-Imidazol-1-yl)ethyl)-5,7-diphenylpyrazolo[1,5-a]pyrimidine-2-carboxamide], the values for the pIC50 on hPAOX and at SMOX [4] were 6.63 and 6.64, respectively. In addition, the “SMOx % recovery CETSA” value at SMOX [3] is given as 0%.

Take `O=C(NCCCn1ccnc1)c1cc2nc(-c3ccccc3)cc(N3CCCC(F)C3)n2n1` (centres unmarked) [Example 62, N-(3-(1H-Imidazol-1-yl)propyl)-7-(3-fluoropiperidin-1-yl)-5-phenylpyrazolo[1,5-a]pyrimidine-2-carboxamide]: the pIC50 was 5.22 on hPAOX and 7.31 on SMOX [4]. The “SMOx % recovery CETSA” value at SMOX [3] is listed as 87%.

Regarding `CN(C)CCCNC(=O)c1cc2nc(-c3ccccc3)cc(-c3ccccc3)n2n1` [Example 18, N-(3-(Dimethylamino)propyl)-5,7-diphenylpyrazolo[1,5-a]pyrimidine-2-carboxamide], the pIC50 at hPAOX is 6.17; on SMOX [4], 6.79. Moreover, the “SMOx % recovery CETSA” value on SMOX [3] was found to be 0%.

On to `O=C(NCCCn1ccnc1)c1cc2nc(-c3ccccc3)cc(-c3ccc(O)cc3)n2n1` [Example 88, N-(3-(1H-imidazol-1-yl)propyl)-7-(4-hydroxyphenyl)-5-phenylpyrazolo[1,5-a]pyrimidine-2-carboxamide], for which the pIC50 at hPAOX was 5.81; on SMOX [4], 6.99. In addition, the “SMOx % recovery CETSA” value on SMOX [3] is listed as 0%.

For `O=C(NCCCn1ccnc1)c1cc2nc(-c3ccccc3)cc(C3CCCCC3)n2n1` [Example 107, N-(3-(1H-imidazol-1-yl)propyl)-7-cyclohexyl-5-phenylpyrazolo[1,5-a]pyrimidine-2-carboxamide], the pIC50 at hPAOX is 5.90; on SMOX [4], 7.66. Further, on SMOX [3], the “SMOx % recovery CETSA” value was 24%.

Turning to `CN1CC(NC(=O)c2cc3nc(-c4ccccc4)cc(N4CCCCC4)n3n2)C1` [Example 68, N-(1-methylazetidin-3-yl)-5-phenyl-7-(piperidin-1-yl)pyrazolo[1,5-a]pyrimidine-2-carboxamide trifluoroacetate], the pIC50 is 5.23 on hPAOX and 6.83 at SMOX [4]. Besides, the “SMOx % recovery CETSA” value at SMOX [3] is 39%.

Take `CCN1CCC[C@@H]1CNC(=O)c1cc2nc(-c3ccccc3)cc(-c3ccccc3)n2n1` [Example 15, (R)—N-((1-Ethylpyrrolidin-2-yl)methyl)-5,7-diphenylpyrazolo[1,5-a]pyrimidine-2-carboxamide]: the pIC50 at hPAOX was 5.20; at SMOX [4], 6.72. Further, the “SMOx % recovery CETSA” value on SMOX [3] is on record as 4%.

On to `Cn1ccnc1CCCNC(=O)c1cc2nc(-c3ccccc3)cc(-c3ccccc3)n2n1` [Example 1, N-(3-(1-Methyl-1H-imidazol-2-yl)propyl)-5,7-diphenylpyrazolo[1,5-a]pyrimidine-2-carboxamide], for which the results for the pIC50 at hPAOX and on SMOX [4] were 6.40 and 7.34, respectively. On SMOX [3], the “SMOx % recovery CETSA” value is on record as 12%.

With `O=C(NCC1CCc2nccn2C1)c1cc2nc(-c3ccccc3)cc(-c3ccccc3)n2n1` (centres unmarked) [Example 20, 5,7-Diphenyl-N-((5,6,7,8-tetrahydroimidazo[1,2-a]pyridin-6-yl)methyl)pyrazolo[1,5-a]pyrimidine-2-carboxamide], the pIC50 is 6.51 at hPAOX and 7.19 at SMOX [4]. Further, the “SMOx % recovery CETSA” value at SMOX [3] is 10%.

In the case of `O=C(NCCCn1ccnc1)c1cc2nc(-c3ccccc3)cc(N3CCCCC3)n2n1` [Example 58, N-(3-(1H-Imidazol-1-yl)propyl)-5-phenyl-7-(piperidin-1-yl)pyrazolo[1,5-a]pyrimidine-2-carboxamide], the figures for the pIC50 at hPAOX and on SMOX [4] were 5.16 and 7.62, respectively. Moreover, the “SMOx % recovery CETSA” value at SMOX [3] came to 29%.

`CN1CCC(CNC(=O)c2cc3nc(-c4ccccc4)cc(-c4ccccc4)n3n2)C1` (centres unmarked) [Example 19, N-((1-Methylpyrrolidin-3-yl)methyl)-5,7-diphenylpyrazolo[1,5-a]pyrimidine-2-carboxamide]: the pIC50 at hPAOX is 6.51; at SMOX [4] it was 6.80. Also, the “SMOx % recovery CETSA” value at SMOX [3] was found to be 2%.

The values above are taken from US20250161307A1, “PYRAZOLOPYRIMIDINES AS MODULATORS OF SPERMINE OXIDASE” (Janssen Pharmaceutica NV, priority 2022, published 2025).
